Reference: patent publication US11214594B2, “Antimicrobial peptide having synergistic antibacterial effect with antibiotics on multidrug resistant bacteria, and use thereof” (priority 2016, dated 2022)
≈ marks a conversion by molar mass, not a printed value. Where a SMILES comes first, the peptide text is derived from it.

Assays:
MRSA 3126 = type: cell-based, Staphylococcus aureus; details: 3126
How it was run: (§1)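 MIC read-out = lowest peptide level with no bacterial proliferation. Strains diluted in MH medium to 2×10^6 CFU; peptide twofold serial dilutions in MH added 1:1 in microtiter wells.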

MRSA 3114 = type: cell-based, Staphylococcus aureus; details: 3114
How it was run: as §1

gram-negative bacteria = experiment: MIC, summary statements for gram-negative bacteria; type: cell-based
Experimental: For the antibacterial activity, a minimal inhibitory concentration (MIC) of a peptide in which fungus bodies were not split in an MH medium with sufficient nutrients was measured.
Specifically, the strains described in the following [Table 2] were purchased and diluted with an MH medium such that the number of bacteria was 2×10^6 colony-forming units (CFUs), 100 μl of each of the diluted strains was aliquoted into a 96-well microtiter plate, and then 100 μl of a peptide solution diluted with the MH medium (solution diluted stepwise at 2: 1) was added to each well.

P. aeruginosa = experiment: microbe, parasite or virus in culture; type: cell-based, Pseudomonas aeruginosa
How it was run: as §1

MDRPA 2002 = type: cell-based, Pseudomonas aeruginosa
How it was run: as §1

MDRPA 2003 = type: cell-based, Pseudomonas aeruginosa
How it was run: as §1

S. typhimurium = experiment: microbe, parasite or virus in culture; type: cell-based, Salmonella typhimurium
How it was run: as §1

MDREC 1238 = type: cell-based, Escherichia coli
How it was run: as §1

S. epidermidis = experiment: microbe, parasite or virus in culture; type: cell-based, Staphylococcus epidermidis
How it was run: as §1

A. baumannii = experiment: microbe, parasite or virus in culture; type: cell-based, Acinetobacter baumannii
How it was run: as §1

MDRAB 12035 [1] = experiment: microbe, parasite or virus in culture; type: cell-based, Acinetobacter baumannii
How it was run: as §1

MDRAB 12035 [2] = experiment: MIC of antibiotic during combined treatment with antimicrobial peptide; type: cell-based, Acinetobacter baumannii
How it was run: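 Antibiotic MIC came from antibiotic dilutions added to bacteria (2×10^6 CFU/ml, MH medium) already combined with peptide serially diluted 2:1 from its own MIC. Swapping the roles of the two agents gave the peptide MIC.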

MDRST 8009 = type: cell-based, Salmonella typhimurium; details: agent alone
How it was run: as §1

[3] = peptide treatment concentration 1 μg/ml
[4] = peptide treatment concentration 2 μg/ml
[5] = peptide treatment concentration 4 μg/ml
[6] = peptide treatment concentration 6 μg/ml
[7] = peptide treatment concentration 8 μg/ml
[8] = peptide treatment concentration 16 μg/ml
[9] = peptide treatment concentration 32 μg/ml
[10] = peptide treatment concentration 64 μg/ml

Structure (SMILES) | Minimal inhibitory concentration MIC (MRSA 3126) [µg/mL] | Minimal inhibitory concentration MIC (MRSA 3114) [µg/mL] | Minimal inhibitory concentration MIC (P. aeruginosa) [µg/mL] | Minimal inhibitory concentration MIC (MDRPA 2002) [µg/mL] | Minimal inhibitory concentration MIC (MDRPA 2003) [µg/mL] | Minimal inhibitory concentration MIC (S. typhimurium) [µg/mL] | Minimal inhibitory concentration MIC (MDREC 1238) [µg/mL] | Minimal inhibitory concentration MIC (S. epidermidis) [µg/mL] | Minimal inhibitory concentration MIC (A. baumannii) [µg/mL] | Peptide MIC, peptide alone (A. baumannii) [µg/mL] | Minimal inhibitory concentration MIC (MDRAB 12035 [1]) [µg/mL] | Peptide MIC, peptide alone (MDRAB 12035 [1]) [µg/mL] | Erythromycin MIC during combined treatment with peptide (MDRAB 12035 [2]; [3]) [µg/mL] | Linezolid MIC during combined treatment with peptide (MDRAB 12035 [2]; [3]) [µg/mL] | Vancomycin MIC during combined treatment with peptide (MDRAB 12035 [2]; [3]) [µg/mL] | Erythromycin MIC during combined treatment with peptide (MDRAB 12035 [2]; [4]) [µg/mL] | Linezolid MIC during combined treatment with peptide (MDRAB 12035 [2]; [4]) [µg/mL] | Vancomycin MIC during combined treatment with peptide (MDRAB 12035 [2]; [4]) [µg/mL] | Erythromycin MIC during combined treatment with peptide (MDRAB 12035 [2]; [5]) [µg/mL] | Linezolid MIC during combined treatment with peptide (MDRAB 12035 [2]; [5]) [µg/mL] | other results
CC[C@H](C)[C@H](NC(=O)[C@H](CCCCN)NC(=O)[C@H](Cc1c[nH]c2ccccc12)NC(=O)[C@@H](N)CCCNC(=N)N)C(=O)N[C@@H](Cc1ccccc1)C(=O)N[C@@H](CCCCN)C(=O)N[C@@H](CCCCN)C(=O)N[C@H](C(=O)N1CCC[C@H]1C(=O)N[C@@H](CCCCN)C(=O)N[C@@H](Cc1ccccc1)C(=O)N[C@@H](CC(C)C)C(=O)N[C@@H](Cc1c[nH]cn1)C(=O)N[C@@H](CO)C(=O)N[C@@H](Cc1c[nH]c2ccccc12)C(=O)N[C@@H](CCCCN)C(=O)N[C@@H](CCCCN)C(=O)N[C@@H](Cc1c[nH]c2ccccc12)C(N)=O)[C@@H](C)CC [PapMA-4, RWK IFK KIP KFL HSW KKW-NH2] (H-RWKIFKKIPKFLHSWKKW-NH2; N-terminus assumed) | >128 | >128 | 16 (≈ 6.51 µM) | 16 (≈ 6.51 µM) | 16 (≈ 6.51 µM) | 32 (≈ 13 µM) | 32 (≈ 13 µM) | >128 | 16 (≈ 6.51 µM) | 16 | 16 (≈ 6.51 µM) | 16 | 32 | >128 | >128 | 16 | 128 | >128 | 8 | 64 | Antibacterial activity (in words) (gram-negative bacteria; gram-negative bacteria): comparable to papiliocin or melittin; Antibacterial activity relative to PapMA-1 (A. baumannii; A. baumannii and antibiotic-resistant strains thereof): 4 times; Vancomycin MIC during combined treatment with peptide (MDRAB 12035 [2]; [5]): 128 µg/mL; Erythromycin MIC during combined treatment with peptide (MDRAB 12035 [2]; [6]): 4 µg/mL; Linezolid MIC during combined treatment with peptide (MDRAB 12035 [2]; [6]): 64 µg/mL; Vancomycin MIC during combined treatment with peptide (MDRAB 12035 [2]; [6]): 64 µg/mL; Erythromycin MIC during combined treatment with peptide (MDRAB 12035 [2]; [7]): 2 µg/mL; Linezolid MIC during combined treatment with peptide (MDRAB 12035 [2]; [7]): 32 µg/mL; Vancomycin MIC during combined treatment with peptide (MDRAB 12035 [2]; [7]): 64 µg/mL; Erythromycin MIC during combined treatment with peptide (MDRAB 12035 [2]; [8]): 0 µg/mL; Linezolid MIC during combined treatment with peptide (MDRAB 12035 [2]; [8]): 0 µg/mL; Vancomycin MIC during combined treatment with peptide (MDRAB 12035 [2]; [8]): 0 µg/mL; Erythromycin MIC during combined treatment with peptide (MDRAB 12035 [2]; [9]): 0 µg/mL; Linezolid MIC during combined treatment with peptide (MDRAB 12035 [2]; [9]): 0 µg/mL; Vancomycin MIC during combined treatment with peptide (MDRAB 12035 [2]; [9]): 0 µg/mL; Erythromycin MIC during combined treatment with peptide (MDRAB 12035 [2]; [10]): 0 µg/mL; Linezolid MIC during combined treatment with peptide (MDRAB 12035 [2]; [10]): 0 µg/mL; Vancomycin MIC during combined treatment with peptide (MDRAB 12035 [2]; [10]): 0 µg/mL; Minimal inhibitory concentration MIC (MDRST 8009): 32 µg/mL (≈ 13 µM)
CC[C@H](C)[C@H](NC(=O)[C@H](CCCCN)NC(=O)[C@H](Cc1c[nH]c2ccccc12)NC(=O)[C@@H](N)CCCNC(=N)N)C(=O)N[C@@H](Cc1ccccc1)C(=O)N[C@@H](CCCCN)C(=O)N[C@@H](CCCCN)C(=O)N[C@H](C(=O)N1CCC[C@H]1C(=O)N[C@@H](CCCCN)C(=O)N[C@@H](CC(C)C)C(=O)N[C@@H](CC(C)C)C(=O)N[C@@H](Cc1c[nH]cn1)C(=O)N[C@@H](CO)C(=O)N[C@@H](Cc1ccccc1)C(=O)N[C@@H](CCCCN)C(=O)N[C@@H](CCCCN)C(=O)N[C@@H](Cc1ccccc1)C(N)=O)[C@@H](C)CC [PapMA-7, RWK IFK KIP KLL HSF KKF-NH2] (H-RWKIFKKIPKLLHSFKKF-NH2; N-terminus assumed) | >128 | >128 | 16 (≈ 6.83 µM) | 16 (≈ 6.83 µM) | 16 (≈ 6.83 µM) | 16 (≈ 6.83 µM) | 64 (≈ 27.3 µM) | >128 | 16 (≈ 6.83 µM) | 16 | 32 (≈ 13.7 µM) | 32 | 8 | 64 | 128 | 4 | 32 | 32 | 2 | 8 | Antibacterial activity relative to PapMA-1, PapMA-2, PapMA-3 and PapMA-4 (gram-negative bacteria; most of the gram-negative bacteria): same or higher; Antibacterial activity (in words) (P. aeruginosa; P. aeruginosa and S. typhimurium): significantly increased; Vancomycin MIC during combined treatment with peptide (MDRAB 12035 [2]; [5]): 8 µg/mL; Erythromycin MIC during combined treatment with peptide (MDRAB 12035 [2]; [6]): 0.5 µg/mL; Linezolid MIC during combined treatment with peptide (MDRAB 12035 [2]; [6]): 4 µg/mL; Vancomycin MIC during combined treatment with peptide (MDRAB 12035 [2]; [6]): 4 µg/mL; Erythromycin MIC during combined treatment with peptide (MDRAB 12035 [2]; [7]): 0.125 µg/mL; Linezolid MIC during combined treatment with peptide (MDRAB 12035 [2]; [7]): 2 µg/mL; Vancomycin MIC during combined treatment with peptide (MDRAB 12035 [2]; [7]): 2 µg/mL; Erythromycin MIC during combined treatment with peptide (MDRAB 12035 [2]; [8]): 0.0625 µg/mL; Linezolid MIC during combined treatment with peptide (MDRAB 12035 [2]; [8]): 1 µg/mL; Vancomycin MIC during combined treatment with peptide (MDRAB 12035 [2]; [8]): 1 µg/mL; Erythromycin MIC during combined treatment with peptide (MDRAB 12035 [2]; [9]): 0 µg/mL; Linezolid MIC during combined treatment with peptide (MDRAB 12035 [2]; [9]): 0 µg/mL; Vancomycin MIC during combined treatment with peptide (MDRAB 12035 [2]; [9]): 0 µg/mL; Erythromycin MIC during combined treatment with peptide (MDRAB 12035 [2]; [10]): 0 µg/mL; Linezolid MIC during combined treatment with peptide (MDRAB 12035 [2]; [10]): 0 µg/mL; Vancomycin MIC during combined treatment with peptide (MDRAB 12035 [2]; [10]): 0 µg/mL; Minimal inhibitory concentration MIC (MDRST 8009): 32 µg/mL (≈ 13.7 µM)
